# Results as given in PMC7912279, “Preclinical Evaluation of ^99mTc-Labeled GRPR Antagonists maSSS/SES-PEG2-RM26 for Imaging of Prostate Cancer” (Pharmaceutics, 2021).
# Assays:
# [1] = Biodistribution in NMRI mice for dosimetry estimation; type: in vivo; settings: 40 pmol (30–500 kBq)
# Procedure: Dosimetry estimation: To estimate the organs’ absorbed doses after iv injection of [^99mTc]Tc-maSSS-PEG2-RM26, NMRI mice were injected with 40 pmol (30–500 kBq) of the radiolabeled peptide and biodistribution was evaluated 0.5, 1, 3, 6, and 24 h pi. Sample collection and activity measurements were done as described above. To evaluate dosimetry in humans, uptake values in mice were upscaled using the well-established “percent kg/g method” [37] (Equation (1)):(%IA/organ)human = [(%IA/g)animal × (kg TBweight)animal × (g organ/(kg TBweight)human](1) where %IA-% injected activity.
# [2] = Metabolite analysis of urine and caecum content by radio-HPLC; type: in vivo; settings: NMRI mice, 40 pmol, 3 h pi, two mice
# Procedure: Metabolite Analysis: The NMRI mice were injected with 40 pmol of [^99mTc]Tc-maSSS-PEG2-RM26 (3 MBq) or [^99mTc]Tc-maSES-PEG2-RM26 (5.8 MBq). The mice were euthanized by CO2 inhalation 3 h pi, the content of the caecum and urine were collected and analyzed using HPLC as previously described. Centrifugation was performed using Centrifuge 5430 R (Eppendorf, Hamburg, Germany).
# PC-3 xenografts = assay: Biodistribution in tumor bearing mice; type: in vivo; settings: BALB/c nu/nu mice bearing PC-3 xenografts; for uptake, Blood / uptake, Bone / uptake, GI (gastrointestinal tract with content) / uptake, Intestine / uptake, Kidneys / uptake, Liver / uptake, Lung / uptake, Muscle / uptake, Pancreas / uptake, Spleen / uptake, Stomach / uptake, Tumor: 40 pmol (30 kBq), gamma counter, 4-7 mice; for Tumor-to-non-tumor ratio, Blood / Tumor-to-non-tumor ratio, Bone / Tumor-to-non-tumor ratio, Intestine / Tumor-to-non-tumor ratio, Kidneys / Tumor-to-non-tumor ratio, Liver / Tumor-to-non-tumor ratio, Lung / Tumor-to-non-tumor ratio, Muscle / Tumor-to-non-tumor ratio, Pancreas / Tumor-to-non-tumor ratio, Spleen / Tumor-to-non-tumor ratio, Stomach: 40 pmol
# Procedure: Animals: All in vivo experiments were carried out on BALB/c nu/nu or NMRI mice provided by Scanbur A/S (Sollentuna, Sweden). All animal studies were approved by the Ethics Committee for Animal Research in Uppsala (Sweden), following the national legislation on the protection of laboratory animals (project identification code of approval 5/16, 26 February 2016). Prostate cancer xenografts expressing GRPR were established in BALB/c nu/nu mice by subcutaneous injection of PC-3 cell suspension in PBS (7 × 10^6 cells in 100 µL) four weeks before the experiment. Four to seven mice per data point were used in in vivo experiments, two mice per data point were used in metabolic analysis and SPECT/CT imaging experiments.
# Biodistribution in tumor bearing mice: The comparison of biodistribution between the two radiolabeled peptides was evaluated in BALB/c nu/nu mice bearing PC-3 xenografts. Each mouse was injected with 40 pmol (30 kBq, mass of injected peptide was adjusted with unlabeled peptide) of either [^99mTc]Tc-maSSS-PEG2-RM26 or [^99mTc]Tc-maSES-PEG2-RM26. The mice were euthanized 3 h pi. Sample collection and activity measurements were done as described above. The biodistribution of [^99mTc]Tc-maSSS-PEG2-RM26 was further studied at 6 h pi following the same protocol. Additionally for [^99mTc]Tc-maSSS-PEG2-RM26, one group of xenograft bearing mice was injected with 40 pmol (30 kBq, mass of injected peptide was adjusted with unlabeled peptide) of labeled peptide with 5 nmol of unlabeled peptide and euthanized 3 h pi.
# [3] = Octanol-water distribution coefficient (logD); type: physicochemical; settings: determined as previously described [35]
# Procedure: To test the stability, the radiolabeled peptides were incubated with 300× molar excess of cysteine or with PBS at room temperature for 1 h. The octanol-water distribution coefficient (logD) was determined as previously described.
compound,measurement,setting,value
"CC(C)C[C@H](NC(=O)C[C@H](O)[C@H](CC(C)C)NC(=O)[C@H](Cc1c[nH]cn1)NC(=O)CNC(=O)[C@@H](NC(=O)[C@H](C)NC(=O)[C@H](Cc1c[nH]c2ccccc12)NC(=O)[C@H](CCC(N)=O)NC(=O)[C@@H](Cc1ccccc1)NC(=O)COCCOCCNC(=O)[C@H](CO)NC(=O)[C@H](CO)NC(=O)[C@H](CO)NC(=O)CS)C(C)C)C(N)=O [[^99mTc]Tc-maSSS-PEG2-RM26, metal not drawn]","uptake, Blood",[1]; 0.5 h pi,0.7 ± 0.1 % IA/g
same,"uptake, Body",[1]; 0.5 h pi,4.5 ± 0.9 %IA/sample
same,"uptake, Bone",[1]; 0.5 h pi,0.26 ± 0.09 % IA/g
same,"uptake, Brain",[1]; 0.5 h pi,0.031 ± 0.008 % IA/g
same,"uptake, Caecum",[1]; 0.5 h pi,0.34 ± 0.09 %IA/sample
same,"uptake, Heart",[1]; 0.5 h pi,0.27 ± 0.10 % IA/g
same,"uptake, Kidneys",[1]; 0.5 h pi,2.5 ± 0.6 % IA/g
same,"uptake, Liver",[1]; 0.5 h pi,4 ± 1 % IA/g
same,"uptake, Lung",[1]; 0.5 h pi,0.7 ± 0.3 % IA/g
same,"uptake, Muscle",[1]; 0.5 h pi,0.13 ± 0.03 % IA/g
same,"uptake, Pancreas",[1]; 0.5 h pi,7 ± 2 % IA/g
same,"uptake, Small intestine",[1]; 0.5 h pi,10 ± 2 %IA/sample
same,"uptake, Spleen",[1]; 0.5 h pi,1.1 ± 0.4 % IA/g
same,"uptake, Stomach",[1]; 0.5 h pi,2.2 ± 0.2 %IA/sample
same,"uptake, Upper large intestine",[1]; 0.5 h pi,0.4 ± 0.3 %IA/sample
same,"uptake, Body",[1]; 1 h pi,6 ± 1 %IA/sample
same,"uptake, Bone",[1]; 1 h pi,0.2 ± 0.1 % IA/g
same,"uptake, Brain",[1]; 1 h pi,0.04 ± 0.02 % IA/g
same,"uptake, Caecum",[1]; 1 h pi,0.9 ± 0.2 %IA/sample
same,"uptake, Heart",[1]; 1 h pi,0.23 ± 0.03 % IA/g
same,"uptake, Kidneys",[1]; 1 h pi,4 ± 1 % IA/g
same,"uptake, Large intestine",[1]; 1 h pi,0.6 ± 0.1 %IA/sample
same,"uptake, Liver",[1]; 1 h pi,6 ± 1 % IA/g
same,"uptake, Lung",[1]; 1 h pi,0.9 ± 0.4 % IA/g
same,"uptake, Pancreas",[1]; 1 h pi,13 ± 6 % IA/g
same,"uptake, Small intestine",[1]; 1 h pi,44 ± 10 %IA/sample
same,"uptake, Spleen",[1]; 1 h pi,2.4 ± 1.6 % IA/g
same,"uptake, Stomach",[1]; 1 h pi,6 ± 2 %IA/sample
same,"uptake, Blood",[1]; 3 h pi,0.38 ± 0.06 % IA/g
same,"uptake, Body",[1]; 3 h pi,4 ± 2 %IA/sample
same,"uptake, Bone",[1]; 3 h pi,0.27 ± 0.04 % IA/g
same,"uptake, Brain",[1]; 3 h pi,0.03 ± 0.01 % IA/g
same,"uptake, Caecum",[1]; 3 h pi,16 ± 4 %IA/sample
same,"uptake, Heart",[1]; 3 h pi,0.12 ± 0.01 % IA/g
same,"uptake, Kidneys",[1]; 3 h pi,1.5 ± 0.3 % IA/g
same,"uptake, Large intestine",[1]; 3 h pi,3.3 ± 3.5 %IA/sample
same,"uptake, Liver",[1]; 3 h pi,2.5 ± 0.4 % IA/g
same,"uptake, Lung",[1]; 3 h pi,0.44 ± 0.07 % IA/g
same,"uptake, Muscle",[1]; 3 h pi,0.061 ± 0.006 % IA/g
same,"uptake, Pancreas",[1]; 3 h pi,3.2 ± 0.7 % IA/g
same,"uptake, Small intestine",[1]; 3 h pi,9 ± 3 %IA/sample
same,"uptake, Spleen",[1]; 3 h pi,2 ± 1 % IA/g
same,"uptake, Stomach",[1]; 3 h pi,5 ± 1 %IA/sample
same,"uptake, Upper large intestine",[1]; 3 h pi,5.2 ± 5.1 %IA/sample
same,"uptake, Blood",[1]; 6 h pi,0.30 ± 0.07 % IA/g
same,"uptake, Body",[1]; 6 h pi,2.8 ± 0.2 %IA/sample
same,"uptake, Bone",[1]; 6 h pi,0.18 ± 0.03 % IA/g
same,"uptake, Brain",[1]; 6 h pi,0.03 ± 0.01 % IA/g
same,"uptake, Caecum",[1]; 6 h pi,18 ± 3 %IA/sample
same,"uptake, Heart",[1]; 6 h pi,0.17 ± 0.08 % IA/g
same,"uptake, Kidneys",[1]; 6 h pi,1.3 ± 0.3 % IA/g
same,"uptake, Large intestine",[1]; 6 h pi,30 ± 13 %IA/sample
same,"uptake, Liver",[1]; 6 h pi,1.1 ± 0.3 % IA/g
same,"uptake, Lung",[1]; 6 h pi,0.3 ± 0.1 % IA/g
same,"uptake, Muscle",[1]; 6 h pi,0.05 ± 0.03 % IA/g
same,"uptake, Small intestine",[1]; 6 h pi,2.5 ±0.8 %IA/sample
same,"uptake, Spleen",[1]; 6 h pi,0.6 ± 0.5 % IA/g
same,"uptake, Stomach",[1]; 6 h pi,3.2 ±0.4 %IA/sample
same,"uptake, Upper large intestine",[1]; 6 h pi,14 ± 1 %IA/sample
same,"uptake, Blood",[1]; 24 h pi,0.030 ± 0.006 % IA/g
same,"uptake, Body",[1]; 24 h pi,0.27 ± 0.05 %IA/sample
same,"uptake, Bone",[1]; 24 h pi,0.04 ± 0.02 % IA/g
same,"uptake, Brain",[1]; 24 h pi,0.006 ± 0.004 % IA/g
same,"uptake, Caecum",[1]; 24 h pi,0.3 ± 0.2 %IA/sample
same,"uptake, Heart",[1]; 24 h pi,0.021 ± 0.003 % IA/g
same,"uptake, Kidneys",[1]; 24 h pi,0.46 ± 0.08 % IA/g
same,"uptake, Large intestine",[1]; 24 h pi,0.05 ± 0.03 %IA/sample
same,"uptake, Liver",[1]; 24 h pi,0.39 ± 0.05 % IA/g
same,"uptake, Lung",[1]; 24 h pi,0.09 ± 0.04 % IA/g
same,"uptake, Muscle",[1]; 24 h pi,0.006 ± 0.003 % IA/g
same,"uptake, Pancreas",[1]; 24 h pi,0.10 ± 0.02 % IA/g
same,"uptake, Small intestine",[1]; 24 h pi,0.10 ± 0.05 %IA/sample
same,"uptake, Spleen",[1]; 24 h pi,0.37 ± 0.09 % IA/g
same,"uptake, Stomach",[1]; 24 h pi,0.2 ± 0.1 %IA/sample
same,"uptake, Upper large intestine",[1]; 24 h pi,0.05 ± 0.01 %IA/sample
same,intact radiolabeled peptide in urine and gastrointestinal (caecum) content,[2],no intact radiolabeled peptide
same,"uptake, Blood",PC-3 xenografts; 3 h pi,0.09 ± 0.04 % IA/g
same,"uptake, Bone",PC-3 xenografts; 3 h pi,0.04 ± 0.02 % IA/g
same,"uptake, GI (gastrointestinal tract with content)",PC-3 xenografts; 3 h pi,56 ± 3 % IA
same,"uptake, Intestine",PC-3 xenografts; 3 h pi,3 ± 1 % IA/g
same,"uptake, Kidneys",PC-3 xenografts; 3 h pi,0.7 ± 0.4 % IA/g
same,"uptake, Liver",PC-3 xenografts; 3 h pi,3 ± 1 % IA/g
same,"uptake, Lung",PC-3 xenografts; 3 h pi,0.12 ± 0.03 % IA/g
same,"uptake, Muscle",PC-3 xenografts; 3 h pi,0.04 ± 0.02 % IA/g
same,"uptake, Pancreas",PC-3 xenografts; 3 h pi,6.1 ± 0.8 % IA/g
same,"uptake, Spleen",PC-3 xenografts; 3 h pi,0.12 ± 0.04 % IA/g
same,"uptake, Stomach",PC-3 xenografts; 3 h pi,1.4 ± 0.3 % IA/g
same,"uptake, Tumor",PC-3 xenografts; 3 h pi,7 ± 2 % IA/g
same,"uptake, Blood",PC-3 xenografts; 6 h pi,0.056 ± 0.009 % IA/g
same,"uptake, Bone",PC-3 xenografts; 6 h pi,0.02 ± 0.02 % IA/g
same,"uptake, GI (gastrointestinal tract with content)",PC-3 xenografts; 6 h pi,26 ± 6 % IA
same,"uptake, Intestine",PC-3 xenografts; 6 h pi,0.4 ± 0.2 % IA/g
same,"uptake, Kidneys",PC-3 xenografts; 6 h pi,0.59 ± 0.06 % IA/g
same,"uptake, Liver",PC-3 xenografts; 6 h pi,0.68 ± 0.08 % IA/g
same,"uptake, Lung",PC-3 xenografts; 6 h pi,0.20 ± 0.10 % IA/g
same,"uptake, Muscle",PC-3 xenografts; 6 h pi,0.012 ± 0.004 % IA/g
same,"uptake, Pancreas",PC-3 xenografts; 6 h pi,0.98 ± 0.08 % IA/g
same,"uptake, Spleen",PC-3 xenografts; 6 h pi,0.06 ± 0.01 % IA/g
same,"uptake, Stomach",PC-3 xenografts; 6 h pi,0.9 ± 0.2 % IA/g
same,"uptake, Tumor",PC-3 xenografts; 6 h pi,3 ± 1 % IA/g
same,"Tumor-to-non-tumor ratio, Blood",PC-3 xenografts; 3 h pi,97 ± 56
same,"Tumor-to-non-tumor ratio, Bone",PC-3 xenografts; 3 h pi,177 ± 79
same,"Tumor-to-non-tumor ratio, Intestine",PC-3 xenografts; 3 h pi,3 ± 1
same,"Tumor-to-non-tumor ratio, Kidneys",PC-3 xenografts; 3 h pi,14 ± 9
same,"Tumor-to-non-tumor ratio, Liver",PC-3 xenografts; 3 h pi,3 ± 2
same,"Tumor-to-non-tumor ratio, Lung",PC-3 xenografts; 3 h pi,65 ± 20
same,"Tumor-to-non-tumor ratio, Muscle",PC-3 xenografts; 3 h pi,188 ± 32
same,"Tumor-to-non-tumor ratio, Pancreas",PC-3 xenografts; 3 h pi,1.2 ± 0.4
same,"Tumor-to-non-tumor ratio, Spleen",PC-3 xenografts; 3 h pi,62 ± 14
same,"Tumor-to-non-tumor ratio, Stomach",PC-3 xenografts; 3 h pi,5 ± 2
same,"Tumor-to-non-tumor ratio, Blood",PC-3 xenografts; 6 h pi,57 ± 22
same,"Tumor-to-non-tumor ratio, Bone",PC-3 xenografts; 6 h pi,287 ± 232
same,"Tumor-to-non-tumor ratio, Intestine",PC-3 xenografts; 6 h pi,9 ± 4
same,"Tumor-to-non-tumor ratio, Kidneys",PC-3 xenografts; 6 h pi,5 ± 2
same,"Tumor-to-non-tumor ratio, Liver",PC-3 xenografts; 6 h pi,5 ± 2
same,"Tumor-to-non-tumor ratio, Lung",PC-3 xenografts; 6 h pi,18 ± 8
same,"Tumor-to-non-tumor ratio, Muscle",PC-3 xenografts; 6 h pi,270 ± 67
same,"Tumor-to-non-tumor ratio, Pancreas",PC-3 xenografts; 6 h pi,3 ± 1
same,"Tumor-to-non-tumor ratio, Spleen",PC-3 xenografts; 6 h pi,50 ± 16
same,"Tumor-to-non-tumor ratio, Stomach",PC-3 xenografts; 6 h pi,3 ± 1
same,logD,[3],-0.6
